The text below walks through data of EPA's ToxValDB 9.5 (doi:10.2903/j.efsa.2017.4722).

≈ marks a conversion by molar mass, not a printed value. Where only a bound is given, the exact number is not on record here.

The subject of one series is Canidae. Particulars: oral, Dog Other.
The subject of another series is Anas platyrhynchos. The note with it: acute; oral; unspecified; mortality.
The subject of a further series is Daphnia magna. The note with it: chronic/long-term; duration: 21 days; reproduction.
The subject of the next series is Apis mellifera. The note with it: acute; oral; unspecified; mortality.
A further series relates to Pimephales promelas. Particulars: chronic/long-term; duration: 35 days; other.
Another series deals with Lepomis macrochirus. The note with it: acute; duration: 96 hours; oral; feed; mortality.
The next series concerns Landoltia sp. The note with it: chronic/long-term; duration: 14 days; frond number.
In the next series the test system is Colinus virginianus. Particulars: for LD50: acute, oral, mortality.
A further series relates to Neomysis kadiakensis. The note with it: acute; duration: 96 hours; oral; feed; mortality.
In a further series the test system is Typhlodromus pyri. Description: LR50; higher = less toxic. The note with it: acute; mortality.
A further series relates to Oncorhynchus mykiss. Particulars: acute; duration: 96 hours; mortality.

Turning to `Cc1cc(C)nc(NC(=O)NS(=O)(=O)c2ccccc2C(=O)OC2COC2)n1` [Oxasulfuron], the no observed adverse effect level (NOAEL) – broadly, the highest tested level that showed no adverse finding – in the series with Canidae (chronic, duration: 1 years, neurology) is 1.3 mg/kg-day; in the series on Canidae (subchronic, duration: 90 days, neurology) it was 1.3 mg/kg-day; in the series on Rattus norvegicus (chronic, duration: 2 years, histopathology: nonneoplastic), 8.3 mg/kg-day. Further, the LD50 in the series with Rattus norvegicus (acute, oral, mortality) was over 5000 mg/kg-day; with Anas platyrhynchos, over 2250 mg/kg-day; in the series with Apis mellifera it was over 100 µg/piece; with Colinus virginianus (diet), over 1610 mg/kg-day; with Colinus virginianus it was over 2250 mg/kg-day. Besides, the NOEC in the series with Daphnia magna amounted to 14 mg/L; in the series with Pimephales promelas it was 114 mg/L; in the series on Landoltia sp. it was 0.0002 mg/L; in the series with Tagia sp. (chronic/long-term, duration: 56 days, reproduction) it was 2 mg/kg. Also, the LC50 with Lepomis macrochirus was over 111 µg/mL; in the series with Tagia sp. (acute, duration: 14 days, mortality), over 1000 mg/kg; in the series on Neomysis kadiakensis it was 82.6 µg/mL (≈ 203 µM). In the series on Colinus virginianus (reproduction developmental), this molecule gave an NOEL of 6.91 mg/kg-day. The same molecule gave an LR50 in the series on Typhlodromus pyri of 3.23 g/ha.
In the series with Canidae (chronic, duration: 16 weeks, hematological), `OC1COC1` [Oxetan-3-ol] had an NOAEL of 50 mg/kg-day. Besides, the LC50 in the series on Oncorhynchus mykiss was over 100 µg/mL.
